In US12715851B2, “4′-substituted analogues of fisetin and their use in the treatment of cancer” (Stellenbosch University, priority 2020, dated 2026):
Entries after “also recorded” stand apart in the source; their conditions may differ.

What was measured:
[1] = test system: cytochrome b5 reductase (Cytb5R); experiment: Hepatotoxicity: specific activity of cytochrome b5 reductase; assay type: in vivo, swiss albino mice; conditions: 50 mg/kg orally, two weeks
Procedure: Hepatotoxicity is considered to be one of the major challenges for drug development schemes. The liver is the primary organ for the metabolism or biotransformation of a given drug. To assess the hepatotoxicity of these compounds, the effects of Fisetin and analogue 3c on various hepatic enzymes was assessed.
A lipid peroxidation assay was performed on microsomal liver fraction and determined in terms of TBARS formation. […] The modulatory effects of Fisetin and analogue 3c were determined on the specific activities of cytochrome b5 reductase (Cytb5R) and cytochrome P450 reductase (CytP450R), phase I enzyme of xenobiotic metabolism. Fisetin and analogue 3c caused reduction in the specific activity of cytochrome b5 reductase. Fisetin decreased Cytb5R specific activity by 66% whereas analogue 3c (50 mg/kg) caused a 36% reduction in specific activity (FIG. 7F). An increase in specific activity of CytP450R by Fisetin and analogue 3c was observed. Fisetin and analogue 3c (50 mg/kg) increased the specific activity by 15% and 13%, respectively (FIG. 7G). Next, the specific activities of phase II enzymes, glutathione S-transferase (GST) and reduced glutathione (GSH) were measured. […] Fisetin and analogue 3c (50 mg/kg) caused a decrease in specific activity of GSH by 34% and 7%, respectively (FIG. 7I). […] These analogues are therefore likely to be effective and safe phytochemicals.

[2] = test system: B(a)P-induced lung carcinogenesis; experiment: B(a)P-induced lung carcinogenesis, Initiation and Promotion Protocols; assay type: in vivo, Swiss albino mice
Text: To assess whether Fisetin and its 4-bromo-Fisetin analogue (Fisetin analogue 3c) have anticarcinogenesis activity and if any toxicity in terms of water and food consumption, and body weight, Benzo[a]pyrene [B(a)P] induced lung carcinogenesis in Swiss albino mice were employed in the study. Along with the antitumor activity of the agents, the body weight, food and water intake in different treatment groups were monitored on regular intervals and analysed.
There were six different treatment groups in the study including, (1) control, (2) B(a)P, (3) Fisetin+B(a)P, (4) Fisetin analogue 3c+B(a)P, (5) B(a)P+Fisetin and (6) B(a)P+Fisetin analogue 3c.
Groups 3 and 4 represent the Initiation Protocol (agents treatment started 1 week before carcinogen treatment and continued 1 week after the last dose of the carcinogen). Groups 5 and 6 represent the Promotion Protocol (agents treatment started after 3 weeks of the carcinogen treatment). The B(a)P was given orally twice a week for 4 weeks at 50 mg/kg body weight dose, whereas Fisetin and Fisetin analogue (3c) were administered orally at 25 mg/kg body weight thrice weekly (see FIG. 9).

A549 = experiment: Apoptosis assay; assay type: cell-based, human; conditions: 48 h, control cells 4.7%
Text: (§1) In A549, analogue 3a induced 8.2 and 11.2% apoptosis, analogue 3c induced 13.4 and 17.2% apoptosis, and analogue 3e induced 10.6 to 19.5% apoptosis compared to 4.7% in control cells (FIG. 6A).

H1299 cancer cells = experiment: Apoptosis assay; assay type: cell-based, human; conditions: 48 h
Text: [Worded in the source for another cell line; used here, by the source, with some conditions changed.] as §1

For `O=c1c(O)c(-c2ccc(Br)cc2)oc2cc(O)ccc12` [analogue 3c, 4′-Bromo-3,7-dihydroxyflavone], the “reduction in specific activity of cytochrome b5 reductase” value [1] was 36%, the “systemic toxicity during long-term application” value ([2]; 25 mg/kg orally thrice weekly) was “did not show any systemic toxicity” and the “tumorigenic features in lung histology (nucleus size, cytoplasmic content, alveoli)” value ([2]; 25 mg/kg orally thrice weekly) was “reversal of the tumorigenic features”. The “tumor incidence, histopathology of H&E stained serial sections” value ([2]; compared to the carcinogen treated group) was “less”, the “decrease of area or size of lesions” value ([2]; initiation group) was “approximately 50%” and the “efficacy in inhibiting B(a)P induced lung carcinogenesis, in words” value ([2]; mouse model) was “efficacious; also recorded: more effective in reducing the number as well as the size of the lung tumor lesions as compared to the parent compound Fisetin”. For the same compound, the “decrease of area or size of lesions” value ([2]; promotion group) was “more than 50%”, the “reduction of total number of lesions” value ([2]; tumor initiation group) was “approximately 50%” and the “surface tumor lesion incidence, gross observation of lung” value ([2]; tumor initiation phase, B(a)P-only group 100% incidence) was “only one mouse showed surface tumor lesion out of five”. The “tumor lesions per mouse and total number of lesions per group, in words” value ([2]; versus B(a)P group) was “strongly reduced”, the apoptosis (A549; IC50 concentration) was 13.4% and the apoptosis (A549; higher concentration 20 μM) was 17.2%. The apoptosis (H1299 cancer cells; IC50 concentration) was 13.4% and the apoptosis (H1299 cancer cells; higher concentration 10 μM) was 17.2%.
